Assay results reported in PMC4389443 (Respiratory Research, 2015).

Target: T1, Recombinant lysyl oxidase like 2 (Homo sapiens, UniProt Q9Y4K0)
T1 construct: purchased R&D systems
T1 sequence (Q9Y4K0 26-774): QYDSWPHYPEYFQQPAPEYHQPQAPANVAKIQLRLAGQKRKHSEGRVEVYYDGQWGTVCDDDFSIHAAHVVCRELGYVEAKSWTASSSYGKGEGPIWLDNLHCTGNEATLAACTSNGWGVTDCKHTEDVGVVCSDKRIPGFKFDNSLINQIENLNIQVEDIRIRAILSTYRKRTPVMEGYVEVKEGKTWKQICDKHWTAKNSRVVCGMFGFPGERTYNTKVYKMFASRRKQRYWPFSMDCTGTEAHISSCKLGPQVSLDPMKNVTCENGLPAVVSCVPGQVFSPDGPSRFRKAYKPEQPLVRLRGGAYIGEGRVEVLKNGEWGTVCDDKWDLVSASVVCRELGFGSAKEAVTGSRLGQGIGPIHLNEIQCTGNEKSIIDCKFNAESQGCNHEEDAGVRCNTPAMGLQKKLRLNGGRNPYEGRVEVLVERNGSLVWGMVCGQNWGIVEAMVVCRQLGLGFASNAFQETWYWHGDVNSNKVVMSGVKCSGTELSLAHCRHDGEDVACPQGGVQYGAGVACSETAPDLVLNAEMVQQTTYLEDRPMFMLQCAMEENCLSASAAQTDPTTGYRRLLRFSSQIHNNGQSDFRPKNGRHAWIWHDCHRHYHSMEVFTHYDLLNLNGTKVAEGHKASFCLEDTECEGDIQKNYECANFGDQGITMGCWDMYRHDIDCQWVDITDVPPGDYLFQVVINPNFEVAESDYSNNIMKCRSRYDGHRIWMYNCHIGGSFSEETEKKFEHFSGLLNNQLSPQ
Experiment: LOXL2 fluorometric enzyme activity assay
Type: biochemical
Experimental: rhLOXL2 (lysyl oxidase like 2) was purchased from R&D systems and assay was performed in 1.2 M urea, 50 mM sodium borate buffer, pH 8.2. The substrate used was 10 mM putrescine and 100 μM of β-aminopropionitrile (βAPN, Sigma-Aldrich) was added to the low controls.

For `CC(C)(C)NC(=O)c1ccc(OC/C(=C/F)CN)cc1` [PXS-4728A], the IC50 was 10.4 µM.
